Key:
Experiment in all cases: relative viability (nuclei count vs DMSO), 5 days (fraction); higher = more cells survive
[1] = compound: OCc1c[nH]c2ccccc12 [Indole-3-carbinol] + Cc1nc(Nc2ncc(C(=O)Nc3c(C)cccc3Cl)s2)cc(N2CCN(CCO)CC2)n1 [Dasatinib] (partner 0.075 µM)
Method in brief: (§1)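 Relative viability was taken as the ratio of nuclei in treated wells to nuclei in vehicle wells. Lung cancer cell lines in 1536-well plates received compounds by pin tool one day after seeding, either one drug alone or a fixed anchor-drug dose plus five library-drug doses (not always all listed) in √10 steps. Nuclei were counted on 4× images after 5 days of treatment, and values are medians of duplicate plates.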

[2] = compound: OCc1c[nH]c2ccccc12 [Indole-3-carbinol] + Cc1cc(Nc2cc(N3CCN(C)CC3)nc(Sc3ccc(NC(=O)C4CC4)cc3)n2)n[nH]1 [Tozasertib] (partner 0.1 µM)
Method in brief: as §1

[3] = compound: OCc1c[nH]c2ccccc12 [Indole-3-carbinol] + N=C(N)NC(=N)NCCc1ccccc1 [Phenformin] (partner 250 µM)
Method in brief: as §1

[4] = compound: OCc1c[nH]c2ccccc12 [Indole-3-carbinol] + COc1cccc2cc(-c3nc([C@H]4CC[C@H](C(=O)O)CC4)n4ncnc(N)c34)[nH]c12 [OSI-027] (partner 0.5 µM)
Method in brief: as §1

[5] = compound: OCc1c[nH]c2ccccc12 [Indole-3-carbinol] + COc1cc2c(Oc3ccc(NC(=O)C4(C(=O)Nc5ccc(F)cc5)CC4)cc3F)ccnc2cc1OCCCN1CCOCC1 [Foretinib] (partner 0.25 µM)
Method in brief: as §1

[6] = compound: OCc1c[nH]c2ccccc12 [Indole-3-carbinol] + CCNC(=O)c1noc(-c2cc(C(C)C)c(O)cc2O)c1-c1ccc(CN2CCOCC2)cc1 [Luminespib] (partner 0.01 µM)
Method in brief: as §1

Indole-3-carbinol = compound: OCc1c[nH]c2ccccc12 [Indole-3-carbinol]
Method in brief: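 Only plates meeting two conditions passed: control CV below 25% and at least one doubling. Lung cancer cell lines, kept overnight at 37 °C in 1536-well plates, were pinned with five library-drug doses (not always all listed) √10 apart on vehicle-anchored plates and grown 5 days without medium change. A one-step fix, permeabilisation and Hoechst stain preceded 4× imaging and MetaXpress nuclear counting. Viability equals treated-well nuclei divided by vehicle-well nuclei, as the median over plates.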

[7] = compound: OCc1c[nH]c2ccccc12 [Indole-3-carbinol] + NC(=O)Nc1cc(-c2cccc(F)c2)sc1C(=O)N[C@H]1CCCNC1 [AZD7762] (partner 0.2 µM)
Method in brief: as §1

[8] = compound: OCc1c[nH]c2ccccc12 [Indole-3-carbinol] + Nc1nc2[nH]cc(CCc3ccc(C(=O)N[C@@H](CCC(=O)O)C(=O)O)cc3)c2c(=O)[nH]1 [Pemetrexed] (partner 0.2 µM)
Method in brief: as §1

[9] = compound: OCc1c[nH]c2ccccc12 [Indole-3-carbinol] + CC(=O)c1c(C)c2cnc(Nc3ccc(N4CCNCC4)cn3)nc2n(C2CCCC2)c1=O [Palbociclib] (partner 0.5 µM)
Method in brief: as §1

[10] = compound: OCc1c[nH]c2ccccc12 [Indole-3-carbinol] + CC(=O)Nc1cccc(-n2c(=O)n(C3CC3)c(=O)c3c(Nc4ccc(I)cc4F)n(C)c(=O)c(C)c32)c1 [Trametinib] (partner 0.02 µM)
Method in brief: as §1

[11] = compound: OCc1c[nH]c2ccccc12 [Indole-3-carbinol] + O=C(c1cc(Cc2n[nH]c(=O)c3ccccc23)ccc1F)N1CCN(C(=O)C2CC2)CC1 [Olaparib] (partner 8 µM)
Method in brief: as §1

[12] = compound: OCc1c[nH]c2ccccc12 [Indole-3-carbinol] + Nc1ncn([C@H]2C[C@H](O)[C@@H](CO)O2)c(=O)n1 [Decitabine] (partner 2 µM)
Method in brief: as §1

[13] = compound: OCc1c[nH]c2ccccc12 [Indole-3-carbinol] + O=C(CCCCCCC(=O)Nc1ccccc1)NO [Vorinostat] (partner 1 µM)
Method in brief: as §1

## NCI-H1623
[1]; first compound 0.253 µM
  relative viability: 0.531
[1]; first compound 0.8 µM
  relative viability: 0.566
[1]; first compound 2.53 µM
  relative viability: 0.539
[1]; first compound 8 µM
  relative viability: 0.577
[2]; first compound 0.253 µM
  relative viability: 0.467
[2]; first compound 0.8 µM
  relative viability: 0.486
[2]; first compound 2.53 µM
  relative viability: 0.39
[2]; first compound 8 µM
  relative viability: 0.453
[3]; first compound 0.253 µM
  relative viability: 0.725
[3]; first compound 0.8 µM
  relative viability: 0.611
[3]; first compound 2.53 µM
  relative viability: 0.571
[3]; first compound 8 µM
  relative viability: 0.551
[4]; first compound 0.253 µM
  relative viability: 0.412
[4]; first compound 0.8 µM
  relative viability: 0.443
[4]; first compound 2.53 µM
  relative viability: 0.424
[4]; first compound 8 µM
  relative viability: 0.436
[5]; first compound 0.253 µM
  relative viability: 0.881
[5]; first compound 0.8 µM
  relative viability: 0.989
[5]; first compound 2.53 µM
  relative viability: 0.803
[5]; first compound 8 µM
  relative viability: 0.858
[6]; first compound 0.253 µM
  relative viability: 0.425
[6]; first compound 0.8 µM
  relative viability: 0.543
[6]; first compound 2.53 µM
  relative viability: 0.532
[6]; first compound 8 µM
  relative viability: 0.529
Indole-3-carbinol; 0.253 µM
  relative viability: 0.924
Indole-3-carbinol; 0.8 µM
  relative viability: 1.02
Indole-3-carbinol; 2.53 µM
  relative viability: 0.984
Indole-3-carbinol; 8 µM
  relative viability: 0.978

## NCI-H1648
[7]; first compound 0.253 µM
  relative viability: 0.555
[7]; first compound 0.8 µM
  relative viability: 0.613
[7]; first compound 2.53 µM
  relative viability: 0.773
[7]; first compound 8 µM
  relative viability: 0.637
[2]; first compound 0.253 µM
  relative viability: 0.835
[2]; first compound 0.8 µM
  relative viability: 0.488
[2]; first compound 2.53 µM
  relative viability: 0.439
[2]; first compound 8 µM
  relative viability: 0.473
[8]; first compound 0.253 µM
  relative viability: 0.663
[8]; first compound 0.8 µM
  relative viability: 0.745
[8]; first compound 2.53 µM
  relative viability: 0.822
[8]; first compound 8 µM
  relative viability: 0.715
[4]; first compound 0.253 µM
  relative viability: 0.258
[4]; first compound 0.8 µM
  relative viability: 0.235
[4]; first compound 2.53 µM
  relative viability: 0.272
[4]; first compound 8 µM
  relative viability: 0.242
[9]; first compound 0.253 µM
  relative viability: 0.31
[9]; first compound 0.8 µM
  relative viability: 0.248
[9]; first compound 2.53 µM
  relative viability: 0.296
[9]; first compound 8 µM
  relative viability: 0.289
[10]; first compound 0.253 µM
  relative viability: 0.486
[10]; first compound 0.8 µM
  relative viability: 0.423
[10]; first compound 2.53 µM
  relative viability: 0.59
[10]; first compound 8 µM
  relative viability: 0.521
[11]; first compound 0.253 µM
  relative viability: 1.27
[11]; first compound 0.8 µM
  relative viability: 0.69
[11]; first compound 2.53 µM
  relative viability: 0.868
[11]; first compound 8 µM
  relative viability: 0.572
[12]; first compound 0.253 µM
  relative viability: 0.482
[12]; first compound 0.8 µM
  relative viability: 0.434
[12]; first compound 2.53 µM
  relative viability: 0.598
[12]; first compound 8 µM
  relative viability: 0.499
[13]; first compound 0.253 µM
  relative viability: 0.301
[13]; first compound 0.8 µM
  relative viability: 0.825
[13]; first compound 2.53 µM
  relative viability: 0.333
[13]; first compound 8 µM
  relative viability: 0.41
Indole-3-carbinol; 0.253 µM
  relative viability: 1.07
Indole-3-carbinol; 0.8 µM
  relative viability: 0.846
Indole-3-carbinol; 2.53 µM
  relative viability: 0.911
Indole-3-carbinol; 8 µM
  relative viability: 0.949

Source: the supplement of paper PMC10307832
